tested on: HBV viral production from HepAD38 cells; test: Activity of test compounds on viral production from HepAD38 cells (viral load by qPCR of HBV core sequence in supernatant); format: cell-based; settings: Hepatitis B virus, 120 h, 5 days incubation, HBV DNA in supernatant by qPCR, top concentration 10 μM, read-out: Viral Load EC50 Activity range
Procedure, shortened: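 EC50 and CC50 come from four-parameter fits of supernatant viral load and CellTiter-Glo viability, respectively. Viral load was measured by core-region TaqMan qPCR against HBV DNA standards and compared with DMSO controls. Tet-free HepAD38 cells (50,000/well, 2% FBS) were exposed to compound, highest 10 μM, for 5 days at 37° C.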

`CN1[C@H](C(=O)Nc2ccc(F)c(Cl)c2)C[C@H](c2ncc(-c3ccnn3C)s2)NS1(=O)=O` [HBV-CSU-281-ISO-I, Cis-N-(3-Chloro-4-fluorophenyl)-2-methyl-5-(5-(1-methyl-1H-pyrazol-5-yl)thiazol-2-yl)-1,2,6-thiadiazinane-3-carboxamide 1,1-dioxide] and `CN1C(C(=O)Nc2ccc(F)c(Cl)c2)CC(c2ccc3c(c2)ncn3C)NS1(=O)=O` (racemic) [HBV-CSU-360, Cis-N-(3-chloro-4-fluorophenyl)-2-methyl-5-(1-methyl-1H-benzo[d]imidazol-5-yl)-1,2,6-thiadiazinane-3-carboxamide 1,1-dioxide] cannot be ordered by EC50: under 1000 nM for the first, under 1000 nM for the second.

`CN1[C@H](C(=O)Nc2cc(Br)cc(Br)c2)C[C@H](c2cccs2)NS1(=O)=O` [HBV-CSU-048-ISO-I, Cis-N-(3,5-Dibromophenyl)-2-methyl-5-(thiophen-2-yl)-1,2,6-thiadiazinane-3-carboxamide 1,1-dioxide] and `Cc1csc(C2CC(C(=O)Nc3ccc(F)c(Cl)c3)N(C)S(=O)(=O)N2)c1` (racemic) [HBV-CSU-147, Cis-N-(3-chloro-4-fluorophenyl)-2-methyl-5-(4-methylthiophen-2-yl)-1,2,6-thiadiazinane-3-carboxamide 1,1-dioxide] cannot be ordered by EC50: under 1000 nM for the first, under 1000 nM for the second.

Going from `Cc1ncc(C2CC(C(=O)Nc3ccc(F)c(Cl)c3)N(C)S(=O)(=O)N2)s1` (racemic) [HBV-CSU-224, Cis-N-(3-Chloro-4-fluorophenyl)-2-methyl-5-(2-methylthiazol-5-yl)-1,2,6-thiadiazinane-3-carboxamide 1,1-dioxide] to `CN1[C@@H](C(=O)Nc2ccc(F)c(Cl)c2)C[C@@H](c2ccc(F)cc2)NS1(=O)=O` [HBV-CSU-112-ISO-II, Cis-N-(3-Chloro-4-fluorophenyl)-5-(4-fluorophenyl)-2-methyl-1,2,6-thiadiazinane-3-carboxamide 1,1-dioxide], the EC50 rises from under 1000 nM to over 5000 nM. The first is the more potent here.

First: COc1ccc(C2CC(C(=O)Nc3ccc(F)c(Cl)c3)N(C)S(=O)(=O)N2)cc1 (stereo not drawn) [HBV-CSU-200, Cis-N-(3-Chloro-4-fluorophenyl)-5-(4-methoxyphenyl)-2-methyl-1,2,6-thiadiazinane-3-carboxamide 1,1-dioxide]
Second: CN1[C@@H](C(=O)Nc2ccc(F)c(Cl)c2)C[C@@H](c2ccc(OCC(=O)O)cc2)NS1(=O)=O [HBV-CSU-216-ISO-II, Cis-2-(4-(5-((3-Chloro-4-fluorophenyl)carbamoyl)-6-methyl-1,1-dioxido-1,2,6-thiadiazinan-3-yl)phenoxy)acetic acid]
The EC50 of the first is lower: under 1000 nM for the first, over 5000 nM for the second. The first is the more potent here.

First: CC(C)n1cc(-c2ccc([C@@H]3C[C@H](C(=O)Nc4ccc(F)c(Cl)c4)N(C)S(=O)(=O)N3)s2)cn1 [HBV-CSU-292-ISO-II, Cis-N-(3-chloro-4-fluorophenyl)-5-(5-(1-isopropyl-1H-pyrazol-4-yl)thiophen-2-yl)-2-methyl-1,2,6-thiadiazinane-3-carboxamide 1,1-dioxide]
Second: Cc1nn(C)cc1-c1csc([C@@H]2C[C@H](C(=O)Nc3ccc(F)c(Cl)c3)N(C)S(=O)(=O)N2)c1 (relative stereo) [HBV-CSU-316-ISO-II, Cis-N-(3-chloro-4-fluorophenyl)-5-(4-(1,3-dimethyl-1H-pyrazol-4-yl)thiophen-2-yl)-2-methyl-1,2,6-thiadiazinane-3-carboxamide 1,1-dioxide]
The EC50 of the first is higher: 1000 to 5000 nM for the first, under 1000 nM for the second.

`CN1[C@H](C(=O)Nc2ccc(F)c(Cl)c2)C[C@H](c2ccc(F)c(F)c2)NS1(=O)=O` [HBV-CSU-230-ISO-I, Cis-N-(3-Chloro-4-fluorophenyl)-5-(3,4-difluorophenyl)-2-methyl-1,2,6-thiadiazinane-3-carboxamide 1,1-dioxide] and `CN1C(C(=O)Nc2ccc(F)c(Cl)c2)CC(c2ccc(C(N)=O)cc2)NS1(=O)=O` (racemic) [HBV-CSU-214, Cis-5-(4-Carbamoylphenyl)-N-(3-chloro-4-fluorophenyl)-2-methyl-1,2,6-thiadiazinane-3-carboxamide 1,1-dioxide] cannot be ordered by EC50: under 1000 nM for the first, under 1000 nM for the second.

Source: US11078170B2 (Assembly Biosciences, Inc., priority 2017, dated 2021)
